Experimental data taken from ChEMBL document CHEMBL4152293, “Synthesis and biological evaluation of podophyllotoxin derivatives as selective antitumor agents” (Eur J Med Chem, 2018).
Activity calls are given as the source filed them. The calls are words filed in the database; no cut-off is given here.

Columns and labels:
A549 [1] = assay: Cytotoxicity against human A549 cells assessed as growth inhibition after 72 hrs by MTT assay; assay type: functional, cell-based; conditions: A549, 72 h
MCF7 [2] = assay: Cytotoxicity against human MCF7 cells assessed as growth inhibition after 72 hrs by MTT assay; assay type: functional, cell-based; conditions: MCF7, 72 h
HepG2 [3] = assay: Cytotoxicity against human HepG2 cells assessed as growth inhibition after 72 hrs by MTT assay; assay type: functional, cell-based; conditions: HepG2, 72 h
L02 [4] = assay: Cytotoxicity against human L02 cells assessed as growth inhibition after 72 hrs by MTT assay; assay type: cell-based; conditions: L02, 72 h
A549 [5] = assay: Potency index, ratio of VP-16 IC50 to test compound IC50 for human A549 cells; assay type: functional
A549 [6] = assay: Potency index, ratio of doxorubicin IC50 to test compound IC50 for human A549 cells; assay type: functional
HepG2 [7] = assay: Potency index, ratio of VP-16 IC50 to test compound IC50 for human HepG2 cells; assay type: functional
HepG2 [8] = assay: Potency index, ratio of doxorubicin IC50 to test compound IC50 for human HepG2 cells; assay type: functional
MCF7 [9] = assay: Potency index, ratio of VP-16 IC50 to test compound IC50 for human MCF7 cells; assay type: functional
MCF7 [10] = assay: Potency index, ratio of doxorubicin IC50 to test compound IC50 for human MCF7 cells; assay type: functional
[11] = Selectivity index, ratio of IC50 for human L02 cells to IC50 for human A549 cells; assay type: toxicity; conditions: L02 cells versus A549 cells, read-out: Ratio IC50
A549 [12] = assay: Induction of morphological changes in human A549 cells assessed as irregular shape at 10 to 30 nM after 72 hrs by DAPI staining-based fluorescence microscopic method; assay type: functional, cell-based
A549 [13] = assay: Induction of apoptosis in human A549 cells assessed as nuclear fragmentation at 10 to 30 nM after 72 hrs by DAPI staining-based fluorescence microscopic method; assay type: functional, cell-based
A549 [14] = assay: Induction of apoptosis in human A549 cells assessed as decrease in cell number at 10 to 30 nM after 72 hrs by DAPI staining-based fluorescence microscopic method; assay type: functional
L02 [15] = assay: Induction of morphological changes in human L02 cells assessed as irregular shape at 10 to 30 nM after 72 hrs by DAPI staining-based fluorescence microscopic method; assay type: cell-based; conditions: l02, 72 h, 0.03 µM
L02 [16] = assay: Induction of apoptosis in human L02 cells assessed as nuclear fragmentation at 10 to 30 nM after 72 hrs by DAPI staining-based fluorescence microscopic method; assay type: cell-based; conditions: l02, 72 h, 0.03 µM
L02 [17] = assay: Induction of apoptosis in human L02 cells assessed as decrease in cell number at 10 to 30 nM after 72 hrs by DAPI staining-based fluorescence microscopic method; conditions: l02, 72 h, 0.03 µM

Row | SMILES | IC50 (A549 [1]) [nM] | IC50 (MCF7 [2]) [nM] | IC50 (HepG2 [3]) [nM] | IC50 (L02 [4]) [nM] | other results
1 | CC[C@H](C)[C@H](NC(=O)c1nc(C)c(C)nc1C)C(=O)O[C@H]1c2cc3c(cc2[C@@H](c2cc(OC)c(OC)c(OC)c2)[C@H]2C(=O)OC[C@@H]21)OCO3 | 119 | 988 | 348 | 420 | 
2 | COc1cc([C@@H]2c3cc4c(cc3[C@H](OC(=O)[C@@H]3CCCN3C(=O)OC(C)(C)C)[C@H]3COC(=O)[C@H]23)OCO4)cc(OC)c1OC | 148 | 277 | 246 | 396 | 
3 | COc1cc([C@@H]2c3cc4c(cc3[C@H](OC(=O)[C@@H](N)CC(C)C)[C@H]3COC(=O)[C@H]23)OCO4)cc(OC)c1OC | 14.7 | 8.6 | 27.1 | 21.6 | 
4 | COc1cc([C@@H]2c3cc4c(cc3[C@H](OC(=O)[C@H](C)NC(=O)OC(C)(C)C)[C@H]3COC(=O)[C@H]23)OCO4)cc(OC)c1OC | 17.3 | 107 | 81.5 | 110 | 
5 | COc1cc([C@@H]2c3cc4c(cc3[C@H](OC(=O)CN(C)C(=O)c3nc(C)c(C)nc3C)[C@H]3COC(=O)[C@H]23)OCO4)cc(OC)c1OC | 20.1 | 66.4 | 58.3 | 15.8 | 
6 | COc1cc([C@@H]2c3cc4c(cc3[C@H](OC(=O)[C@@H]3CCCN3C(=O)c3nc(C)c(C)nc3C)[C@H]3COC(=O)[C@H]23)OCO4)cc(OC)c1OC | 80.1 | 122 | 112 | 132 | 
7 | COc1cc([C@@H]2c3cc4c(cc3[C@H](OC(=O)[C@H](CC(C)C)NC(=O)c3nc(C)c(C)nc3C)[C@H]3COC(=O)[C@H]23)OCO4)cc(OC)c1OC | 62.4 | 127 | 89.1 | 140 | 
8 | COc1cc([C@@H]2c3cc4c(cc3[C@H](OC(=O)CNC(=O)OC(C)(C)C)[C@H]3COC(=O)[C@H]23)OCO4)cc(OC)c1OC | 1.6 | 11.3 | 26.6 | 7.3 | Ratio IC50 (A549 [5]): 5900; Ratio IC50 (A549 [6]): 140
9 | COc1cc([C@@H]2c3cc4c(cc3[C@H](OC(=O)[C@@H]3CCCN3)[C@H]3COC(=O)[C@H]23)OCO4)cc(OC)c1OC | 2.8 | 7.6 | 12.8 | 6.2 | 
10 | COc1cc([C@@H]2c3cc4c(cc3[C@H](OC(=O)[C@@H](N)Cc3ccccc3)[C@H]3COC(=O)[C@H]23)OCO4)cc(OC)c1OC | 3.8 | 15.6 | 27.3 | 8.9 | 
11 | COc1cc([C@@H]2c3cc4c(cc3[C@H](OC(=O)[C@H](Cc3ccccc3)NC(=O)OC(C)(C)C)[C@H]3COC(=O)[C@H]23)OCO4)cc(OC)c1OC | 30.2 | 95.3 | 87.1 | 78.4 | 
12 | COc1cc([C@@H]2c3cc4c(cc3[C@H](OC(=O)[C@H](CC(C)C)NC(=O)OC(C)(C)C)[C@H]3COC(=O)[C@H]23)OCO4)cc(OC)c1OC | 130 | 110 | 106 | 180 | 
13 | COc1cc([C@@H]2c3cc4c(cc3[C@H](OC(=O)CNC(=O)c3nc(C)c(C)nc3C)[C@H]3COC(=O)[C@H]23)OCO4)cc(OC)c1OC | 9.3 | 39.9 | 11.7 | 18.2 | Ratio IC50 (HepG2 [7]): 4200; Ratio IC50 (HepG2 [8]): 59
14 | COc1cccc2c1C(=O)c1c(O)c3c(c(O)c1C2=O)C[C@@](O)(C(=O)CO)C[C@@H]3O[C@H]1C[C@H](N)[C@H](O)[C@H](C)O1 [DOXORUBICIN] | 228 |  |  | 53.3 | 
15 | COc1cc([C@@H]2c3cc4c(cc3[C@H](OC(=O)[C@H](C)NC(=O)c3nc(C)c(C)nc3C)[C@H]3COC(=O)[C@H]23)OCO4)cc(OC)c1OC | 15.8 | 15.6 | 26.9 | 25.5 | 
16 | COc1cc([C@@H]2c3cc4c(cc3[C@H](OC(=O)c3nc(C)c(C)nc3C)[C@H]3COC(=O)[C@H]23)OCO4)cc(OC)c1OC | 76.9 | 63.5 | 57.8 | 115 | 
17 | COc1cc([C@@H]2c3cc4c(cc3[C@H](OC(=O)[C@H](C)N)[C@H]3COC(=O)[C@H]23)OCO4)cc(OC)c1OC | 13.6 | 18.5 | 17.8 | 10.8 | 
18 | COc1cc([C@@H]2c3cc4c(cc3[C@H](OC(=O)CN)[C@H]3COC(=O)[C@H]23)OCO4)cc(OC)c1OC | 12.9 | 7.2 | 17.5 | 14.5 | Ratio IC50 (MCF7 [9]): 650; Ratio IC50 (MCF7 [10]): 10
19 | CC[C@H](C)[C@H](N)C(=O)O[C@H]1c2cc3c(cc2[C@@H](c2cc(OC)c(OC)c(OC)c2)[C@H]2C(=O)OC[C@@H]21)OCO3 | 19.2 | 17.3 | 22.5 | 11.1 | 
20 | COc1cc([C@@H]2c3cc4c(cc3[C@H](OC(=O)[C@H](Cc3ccccc3)NC(=O)c3nc(C)c(C)nc3C)[C@H]3COC(=O)[C@H]23)OCO4)cc(OC)c1OC | 8.1 | 11.3 | 24.5 | 12 | 
21 | COc1cc([C@@H]2c3cc4c(cc3[C@@H](O[C@@H]3O[C@@H]5CO[C@@H](C)O[C@H]5[C@H](O)[C@H]3O)[C@H]3COC(=O)[C@H]23)OCO4)cc(OC)c1O [ETOPOSIDE] | 9470 | 4720 | > 50000 | 3480 | selectivity ratio [11]: 0.5
22 | CC[C@H](C)[C@H](NC(=O)OC(C)(C)C)C(=O)O[C@H]1c2cc3c(cc2[C@@H](c2cc(OC)c(OC)c(OC)c2)[C@H]2C(=O)OC[C@@H]21)OCO3 | 223 | 626 | 690 | 1120 | 
23 | CNCC(=O)O[C@H]1c2cc3c(cc2[C@@H](c2cc(OC)c(OC)c(OC)c2)[C@H]2C(=O)OC[C@@H]21)OCO3 | 6.8 | 17.5 | 24.9 | 9.6 | Activity (A549 [12]): Active; Activity (A549 [13]): Active; Activity (A549 [14]): Active; Activity (L02 [15]): Toxic; Activity (L02 [16]): Toxic; Activity (L02 [17]): Toxic
